According to patent US10294229B2, “Heteroaryl substituted aminopyridine compounds” (BRISTOL-MYERS SQUIBB COMPANY, priority 2015, dated 2019):

Assays:
IRAK4 = IRAK4 (Homo sapiens (Human), UniProt Q9NWZ3); experiment: IRAK4 Inhibition Assay; format: biochemical; settings: ATP 500 μM; IRAK4 0.6 nM
Summary of the method: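 Readout: electrophoretic (LabChip) separation of fluorescent peptide substrate from phosphorylated product after EDTA quench. Reactions ran 60 min at room temperature with 0.6 nM IRAK4, 1.5 μM peptide and 500 μM ATP; inhibition referenced to no-enzyme (100%) and vehicle (0%) controls.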

[1] = tested on: Human whole blood stimulated with a TLR2 agonist (lipoteichoic acid), IL-6 levels; experiment: IRAK4 Whole Blood Assay; format: cell-based; settings: lipoteichoic acid 10 μg/mL
Summary of the method: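 IL-6 was quantified by cytometric bead assay in supernatants of human blood (ACD-A) stimulated for 5 h with lipoteichoic acid at 10 μg/mL final. Compound exposure preceded stimulation for 60 min at 37 °C, 5% CO2.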

Chain of IRAK4 (Q9NWZ3 whole entry, species assumed): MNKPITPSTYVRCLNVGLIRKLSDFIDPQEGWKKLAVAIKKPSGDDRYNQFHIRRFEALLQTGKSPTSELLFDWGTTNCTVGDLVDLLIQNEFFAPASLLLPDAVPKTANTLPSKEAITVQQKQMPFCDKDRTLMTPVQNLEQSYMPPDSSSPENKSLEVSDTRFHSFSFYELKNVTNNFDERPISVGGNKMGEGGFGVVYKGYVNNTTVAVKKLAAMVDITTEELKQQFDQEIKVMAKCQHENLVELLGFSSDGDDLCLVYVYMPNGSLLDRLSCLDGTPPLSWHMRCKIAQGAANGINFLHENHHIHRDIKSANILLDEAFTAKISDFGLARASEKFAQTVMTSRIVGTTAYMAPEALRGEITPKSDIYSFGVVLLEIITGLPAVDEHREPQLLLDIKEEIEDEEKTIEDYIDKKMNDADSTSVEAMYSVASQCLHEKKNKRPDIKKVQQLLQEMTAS

SMILES	IC50 (IRAK4)	EC50 ([1]; Homo sapiens)	EC50 [1]
CC(C)CCc1cn(-c2cnc(-n3ncc4cc(C#N)cnc43)cc2NC(C)C)nn1 [Example 307, 1-(5-(4-isopentyl-1H-1,2,3-triazol-1-yl)-4-(isopropylamino)pyridin-2-yl)-1H-pyrazolo[3,4-b]pyridine-5-carbonitrile]	3 nM	580 nM	–
CC(C)Nc1cc(-n2ncc3cc(C#N)cnc32)ncc1-c1cn([C@@H]2CCN(S(C)(=O)=O)C[C@H]2O)nn1 (single isomer, unassigned) [Example 204]	6 nM	–	710 nM
CC(C)Nc1cc(-n2ncc3cc(C#N)cnc32)ncc1-c1cn([C@@H]2CCC[C@H]2O)nn1 (single isomer, unassigned) [Example 80]	3 nM	–	590 nM
CC(C)Nc1cc(-n2ncc3cc(C#N)cnc32)ncc1-c1cn([C@H](C)[C@H](C)O)nn1 (single isomer, unassigned) [Example 89]	7 nM	–	930 nM
CC(C)(O)CCc1cn(-c2cnc(-n3ncc4cc(C#N)cnc43)cc2NC2CCOC2)nn1 [Example 366, (S)-1-(5-(4-(3-hydroxy-3-methylbutyl)-1H-1,2,3-triazol-1-yl)-4-((tetrahydrofuran-3-yl)amino)pyridin-2-yl)-1H-pyrazolo[3,4-b]pyridine-5-carbonitrile]	9 nM	–	410 nM
CC(C)Nc1cc(-n2ncc3cc(C#N)cnc32)ncc1-c1cn(CC2CCC2)cn1 [Example 233, 1-(5-(1-(cyclobutylmethyl)-1H-imidazol-4-yl)-4-(isopropylamino)pyridin-2-yl)-1H-pyrazolo[3,4-b]pyridine-5-carbonitrile]	4 nM	530 nM	–
CC(C)(O)CCc1cn(-c2cnc(-n3ncc4cc(C#N)cnc43)cc2NC2(C)CC2)nn1 [Example 383, 1-(5-(4-(3-hydroxy-3-methylbutyl)-1H-1,2,3-triazol-1-yl)-4-((1-methylcyclopropyl)amino)pyridin-2-yl)-1H-pyrazolo[3,4-b]pyridine-5-carbonitrile]	2 nM	370 nM	–
CC(C)Nc1cc(-n2ncc3cc(C#N)cnc32)ncc1-c1cn(CC2CC2)cn1 [Example 229, 1-(5-(1-(cyclopropylmethyl)-1H-imidazol-4-yl)-4-(isopropylamino)pyridin-2-yl)-1H-pyrazolo[3,4-b]pyridine-5-carbonitrile]	10 nM	590 nM	–
CC(C)Nc1cc(-n2ncc3cc(C#N)cnc32)ncc1-c1cn(CCCO)nn1 [Example 28, 1-(5-(1-(3-hydroxypropyl)-1H-1,2,3-triazol-4-yl)-4-(isopropylamino)pyridin-2-yl)-1H-pyrazolo [3,4-b]pyridine-5-carbonitrile]	6 nM	1910 nM	–
CC(C)Nc1cc(-n2ncc3cc(C#N)cnc32)ncc1-c1cn([C@@H]2CCC[C@H]2O)nn1 (single isomer, unassigned) [Example 82]	5 nM	–	1660 nM
CCCc1cn(-c2cnc(-n3cnc4cc(C#N)cnc43)cc2N[C@@H](C)CO)nn1 [Example 285, (S)-3-(4-((1-hydroxypropan-2-yl)amino)-5-(4-propyl-1H-1,2,3-triazol-1-yl)pyridin-2-yl)-3H-imidazo[4,5-b]pyridine-6-carbonitrile]	17 nM	6400 nM	–
COC(=O)NCCc1cn(-c2cnc(-n3ncc4cc(C#N)cnc43)cc2NC(C)C)nn1 [Example 352, methyl (2-(1-(6-(5-cyano-1H-pyrazolo[3,4-b]pyridin-1-yl)-4-(isopropylamino)pyridin-3-yl)-1H-1,2,3-triazol-4-yl)ethyl)carbamate]	20 nM	460 nM	–
CC(C)Nc1cc(-n2ncc3cc(C#N)cnc32)ncc1-n1cc(CCc2ccccc2)nn1 [Example 319, 1-(4-(isopropylamino)-5-(4-phenethyl-1H-1,2,3-triazol-1-yl)pyridin-2-yl)-1H-pyrazolo[3,4-b]pyridine-5-carbonitrile]	2 nM	920 nM	–
CC(C)Nc1cc(-n2ncc3cc(C#N)cnc32)ncc1-c1cn(C2CN(C(=O)C3CC3)C2)nn1 [Example 145, 1-(5-(1-(1-(cyclopropanecarbonyl)azetidin-3-yl)-1H-1,2,3-triazol-4-yl)-4-(isopropylamino)pyridin-2-yl)-1H-pyrazolo[3,4-b]pyridine-5-carbonitrile]	4 nM	740 nM	–
CC(C)Nc1cc(-n2ncc3cc(C#N)cnc32)ncc1-n1cc(CC(F)C(C)(C)O)nn1 (racemic) [345, racemic, (±)-1-(5-(4-(2-fluoro-3-hydroxy-3-methylbutyl)-1H-1,2,3-triazol-1-yl)-4-(isopropylamino)pyridin-2-yl)-1H-pyrazolo[3,4-b]pyridine-5-carbonitrile]	4 nM	270 nM	–
CC(C)Nc1cc(-n2ncc3cc(C#N)cnc32)ncc1-c1cn(C2CN(C(=O)C(C)C)C2)nn1 [Example 144, 1-(5-(1-(1-isobutyrylazetidin-3-yl)-1H-1,2,3-triazol-4-yl)-4-(isopropylamino)pyridin-2-yl)-1H-pyrazolo[3,4-b]pyridine-5-carbonitrile]	4 nM	490 nM	–
CC(C)Nc1cc(-n2ncc3cc(C#N)cnc32)ncc1-c1cn([C@H]2CC[C@H](NC(=O)OC(C)(C)C)CC2)nn1 [Example 212, tert-butyl ((trans)-4-(4-(6-(5-cyano-1H-pyrazolo[3,4-b]pyridin-1-yl)-4-(isopropylamino)pyridin-3-yl)-1H-1,2,3-triazol-1-yl)cyclohexyl)carbamate]	3 nM	1400 nM	–
CC(C)Nc1cc(-n2ncc3cc(C#N)cnc32)ncc1-c1cn([C@@H]2CCN(S(C)(=O)=O)C[C@H]2O)nn1 (single isomer, unassigned) [Example 199]	4 nM	550 nM	–
CC(C)(O)CCC1CC(c2cnc(-n3ncc4cc(C#N)cnc43)cc2NCC(F)F)=NO1 (stereo not shown) [Example 442, 1-(4-((2,2-difluoroethyl)amino)-5-(5-(3-hydroxy-3-methylbutyl)-4,5-dihydroisoxazol-3-yl)pyridin-2-yl)-1H-pyrazolo[3,4-b]pyridine-5-carbonitrile]	4 nM	410 nM	–
COCC(O)Cn1cc(-c2cnc(-n3ncc4cc(C#N)cnc43)cc2NC(C)C)nn1 (stereo not shown) [Example 133, 1-(5-(1-(2-hydroxy-3-methoxypropyl)-1H-1,2,3-triazol-4-yl)-4-(isopropylamino)pyridin-2-yl)-1H-pyrazolo[3,4-b]pyridine-5-carbonitrile]	10 nM	980 nM	–
CC(C)Nc1cc(-n2ncc3cc(C#N)cnc32)ncc1-c1cn([C@@H](CO)c2ccccc2)nn1 [Example 86, (R)-1-(5-(1-(2-hydroxy-1-phenylethyl)-1H-1,2,3-triazol-4-yl)-4-(isopropylamino)pyridin-2-yl)-1H-pyrazolo[3,4-b]pyridine-5-carbonitrile]	18 nM	1770 nM	–
CC(C)Nc1cc(-n2ncc3cc(C#N)cnc32)ncc1-c1cn(C)nn1 [Example 164, 1-(4-(isopropylamino)-5-(1-methyl-1H-1,2,3-triazol-4-yl)pyridin-2-yl)-1H-pyrazolo[3,4-b]pyridine-5-carbonitrile]	8 nM	600 nM	–
CC(C)Nc1cc(-n2ncc3cc(C#N)cnc32)ncc1-n1cc(CC[C@@](C)(O)CO)nn1 [Example 388, (R)-1-(5-(4-(3,4-dihydroxy-3-methylbutyl)-1H-1,2,3-triazol-1-yl)-4-(isopropylamino)pyridin-2-yl)-1H-pyrazolo[3,4-b]pyridine-5-carbonitrile]	6 nM	260 nM	–
CC(C)Nc1cc(-n2ncc3cc(C#N)cnc32)ncc1-c1cn(CCCCCO)nn1 [Example 125, 1-(5-(1-(5-hydroxypentyl)-1H-1,2,3-triazol-4-yl)-4-(isopropylamino)pyridin-2-yl)-1H-pyrazolo[3,4-b]pyridine-5-carbonitrile]	3 nM	1760 nM	–
CC(C)Nc1cc(-n2ncc3cc(C#N)cnc32)ncc1-n1cc(C[C@@H](O)c2ccccc2)nn1 [Example 315, (R)-1-(5-(4-(2-hydroxy-2-phenylethyl)-1H-1,2,3-triazol-1-yl)-4-(isopropylamino)pyridin-2-yl)-1H-pyrazolo[3,4-b]pyridine-5-carbonitrile]	5 nM	1780 nM	–
CC(C)Nc1cc(-n2ncc3cc(C#N)cnc32)ncc1-c1cn(C[C@H](N)Cc2ccccc2)nn1 [Example 169, (R)-1-(5-(1-(2-amino-3-phenylpropyl)-1H-1,2,3-triazol-4-yl)-4-(isopropylamino)pyridin-2-yl)-1H-pyrazolo[3,4-b]pyridine-5-carbonitrile]	17 nM	2140 nM	–
CCN(CC)Cc1cn(-c2cnc(-n3ncc4cc(C#N)cnc43)cc2NC(C)C)nn1 [Example 324, 1-(5-(4-((diethylamino)methyl)-1H-1,2,3-triazol-1-yl)-4-(isopropylamino)pyridin-2-yl)-1H-pyrazolo[3,4-b]pyridine-5-carbonitrile]	18 nM	3410 nM	–
CC(C)Nc1cc(-n2ncc3cc(C#N)cnc32)ncc1-c1cn(C[C@H](C)O)nn1 [Example 65, (S)-1-(5-(1-(2-hydroxypropyl)-1H-1,2,3-triazol-4-yl)-4-(isopropylamino)pyridin-2-yl)-1H-pyrazolo[3,4-b]pyridine-5-carbonitrile]	9 nM	420 nM	–
CC(C)Nc1cc(-n2ncc3cc(C#N)cnc32)ncc1-c1cn(C[C@H]2CCCN2C(=O)OC(C)(C)C)nn1 [Example 99, (R)-tert-butyl 2-((4-(6-(5-cyano-1H-pyrazolo[3,4-b]pyridin-1-yl)-4-(isopropylamino)pyridin-3-yl)-1H-1,2,3-triazol-1-yl)methyl)pyrrolidine-1-carboxylate]	8 nM	3370 nM	–
